Measurements published in patent US7312358B2, “Pharmaceutically active sulfanilide derivatives” (Laboratoires Serono SA, priority 2000, dated 2007).

How the values were obtained:
hOT-R = biological target: T1, hOT-R (Homo sapiens, UniProt P30559); assay: Inhibition of oxytocin mediated Ca2+-mobilization by FLIPR (HEK cells); format: cell-based; settings: fluo-4, OT 40 nM
T1 construct: expressed in transfected cells; host or cells: HEK (Human Embryonic Kidney) cells
T1 sequence (P30559 1-389): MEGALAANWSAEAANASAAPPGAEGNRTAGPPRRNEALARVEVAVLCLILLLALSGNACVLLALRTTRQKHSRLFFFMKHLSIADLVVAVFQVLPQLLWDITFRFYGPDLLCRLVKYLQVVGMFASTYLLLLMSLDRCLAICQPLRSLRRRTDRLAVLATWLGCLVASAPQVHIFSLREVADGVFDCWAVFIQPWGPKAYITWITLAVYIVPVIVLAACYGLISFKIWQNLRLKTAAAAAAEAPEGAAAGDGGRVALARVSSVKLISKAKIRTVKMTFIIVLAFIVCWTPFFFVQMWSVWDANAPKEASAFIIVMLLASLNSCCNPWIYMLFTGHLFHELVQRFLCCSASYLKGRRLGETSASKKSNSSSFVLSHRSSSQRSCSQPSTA
Text: c) Functional Assay No. 1: Inhibition of Oxytocitn Mediated Ca^2+-Mobilization by FLIPR (Fluorescent Imaging Plate Reader)
(§1) FLIPR is a machine for fluorescence imaging using a laser that is capable of illuminating a 96-well plate and a means of simultaneously reading each well thus enabling rapid measurements on a large number of samples.
This assay intends to show the inhibition of the OT/OT-R mediated calcium mobilisation—being necessary to cause uterine contractions—by using test compounds of formula (I).
Preparing the plates: FLIPR-plates were pre-coated with PLL (Poly-L-Lysine) 10 μg/ml+0.1% gelatine to attach the HEK (Human Embryonic Kidney) cells for 30 min up to 2 days at 37° C. The cells were plated out into 96-well plates (60000 cells/well).
(§2) Labelling with fluo-4: 50 kg fluo-4 (fluorescent marker) were dissolved in 20 μl pluronic acid (20% in DMSO). The dissolved fluo-4 was then diluted in 10 ml DMEM (Dubecco's Minimal Essential Medium-F12 medium without FCS (Fetal Calf Serum). The medium was removed from the plates, followed by one wash with DNEM-F12 medium. Now, 100 μl of the DMEM-F12 medium containing fluo-4 were added and the cells incubated for 1.5-2 h (HEK-cells). The cells now contain the fluorescent marker.
(§3) Buffer: 145 mM NaCl, 5 mM KCl, 1 mM MgCl2, 10 mM Hepes, 10 mM Glucose, EGTA (Ethylene-bis oxyethylene nitrilo tetraacetic acid). Adjust to pH 7.4.
(§4) Performance of the assay: A minimum of 80 μl/well of antagonists (5×) in the above buffer (1×) were prepared (96-well plates). The antagonists were added to the well-plates at different concentrations (30 μM, 10 μM, 1 μM, 300 nM, 100 nM, 10 nM, 1 nM, 100 pM, 10 pM).
OT is added at a concentration of 40 nM.
(§5) The fluorescent marker being sensitive to the amount of Ca^2+ mobilized within the cell may be quantified by the FLIPR machine.
(§6) The activities of the sulfanilide derivatives according to formula I were assessed using the above described in vitro biological assay. The values refer to the capacity of the example compounds according to formula I to effectively antagonize oxytocin-induced intracellular Ca^2+-mobilization mediated by the oxytocin receptor.

ratOT-R = biological target: T2, ratOT-R (Rattus norvegicus, UniProt P70536); assay: Inhibition of IP3 (inositol tri-phosphate)-synthesis in HEK/EBNA-OTR cells; format: cell-based; settings: [3H]-inositol, oxytocin 10 nM
T2 construct: expressed in transfected cells; host or cells: HEK/EBNA cells
T2 sequence (P70536 1-388): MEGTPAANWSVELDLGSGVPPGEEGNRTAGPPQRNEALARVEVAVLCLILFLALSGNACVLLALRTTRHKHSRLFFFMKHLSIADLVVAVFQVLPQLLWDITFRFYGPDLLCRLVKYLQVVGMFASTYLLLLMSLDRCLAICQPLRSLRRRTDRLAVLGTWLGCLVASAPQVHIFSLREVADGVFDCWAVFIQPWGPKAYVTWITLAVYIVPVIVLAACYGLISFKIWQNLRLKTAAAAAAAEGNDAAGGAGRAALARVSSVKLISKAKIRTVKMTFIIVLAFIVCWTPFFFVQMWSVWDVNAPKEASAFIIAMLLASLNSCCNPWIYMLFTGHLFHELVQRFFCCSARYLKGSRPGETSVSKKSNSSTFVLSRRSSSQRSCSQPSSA
Experimental: e) Functional Assay No. 2: Inhibition of IP3 (Inositol Tri-Phosphate)-Synthesis in HEK/EBNA-OTR Cells
This assay intends to show the inhibition of the OT/OT-R mediated IP3 synthesis—being necessary to cause uterine contractions—by using test compounds of formula (I).
Stimulation of the cells: IIEK/EBNA OTR(rat or human) cells were plated out into costar 12-well plates, and equilibrated for 15-24 h with [^3H]-inositol radiolabel in medium without inositol supplement, with 1% FCS (0.5 ml/well). 4 μCi/ml were used. After this, the medium containing the label was aspirated. Then was added DMEM (without FCS, inositol), 20 mM Hepes (4-(2-hydroxyethyl)-1-piperazine-ethane-sulphonic acid), 1 mg/ml BSA containing 10 mM LiCl (freshly prepared), for […] at 37° C. The agonist (i.e. oxytocin used at a concentration of 10 nM) and the antagonists (i.e. the tests compounds of formula (1) used in a concentration of 10 μM, 1 μM, 300 nM, 100 nM, 10 nM, 1 nM, 100 pM, 10 pM, 3 pM) were added for the time required (15-45 min), followed by aspiration of the medium. Due to the […] of the OT receptor, the radiolabeled inositol is phosphorylated to yield IP3, the amount of the radiolabeled IP3 may be determined through the ensuing work-up. The reaction was stopped with 1 ml STOP-solution (i.e. 0.4 M perchloric acid), and let sit for 5-10 min at Room Temperature. Then, 0.8 ml were transferred into tubes containing 0.4 ml of neutralizing solution (0.72 M KOH/0.6M KHCO3), and the tubes vortexed and kept in the cold at least for 2 h.
Separation of IP's: The samples were spun in a table top centrifuge at 3000-4000 rpm for 15 min. 1 ml of the supernatant was transferred to new tubes containing 2.5 ml H2O. Packed resin (0.8 ml) was equilibrated with 20 ml H2O, and the whole samples poured onto the chromatography columns, thus separating the mixture. To discard free inositol, two washes with 10 ml H2O were carried out.
Elution of total IP's: The elution was achieved using 3 ml 1M ammonium formate/0.1M formic acid. The eluant was collected in scintillation counting tubes, followed by addition of 7 ml of scintillation liquid. The amount of IP3 is determined by a scintillating counter.
as §6, with “derivatives claimed in the” for “derivatives according to”, “oxytocin-induced IP3-synthesis” for “oxytocin-induced intracellular Ca^2+-mobilization”

hV1a [1] = biological target: T3, hV1a (Homo sapiens, UniProt P37288); assay: Inhibition of vasopressin-mediated Ca2+-mobilization by FLIPR (CHO cells expressing hV1a); format: cell-based; design: expressed in transfected cells; host or cells: CHO cells; settings: fluo-4, AVP 40 nM
T3 sequence (P37288 whole entry): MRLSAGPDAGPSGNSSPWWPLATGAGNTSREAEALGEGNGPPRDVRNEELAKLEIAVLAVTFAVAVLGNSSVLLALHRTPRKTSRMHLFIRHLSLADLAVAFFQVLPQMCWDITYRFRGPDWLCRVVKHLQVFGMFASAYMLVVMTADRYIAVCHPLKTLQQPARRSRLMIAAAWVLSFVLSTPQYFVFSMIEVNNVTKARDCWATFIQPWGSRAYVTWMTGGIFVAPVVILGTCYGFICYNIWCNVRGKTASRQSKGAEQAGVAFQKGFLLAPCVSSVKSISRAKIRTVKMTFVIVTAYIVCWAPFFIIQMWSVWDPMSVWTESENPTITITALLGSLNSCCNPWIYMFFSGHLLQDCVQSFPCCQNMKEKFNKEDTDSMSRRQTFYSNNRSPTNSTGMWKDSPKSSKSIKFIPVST
Text: d) Functional Assay No. 1: Inhibition of Vasopressin-Mediated Ca^2+-mobilization by FLIPR (Fluorescent Imaging Plate Reader)
as §1
This assay intends to show the inhibition of the AVP/V1a-R mediated calcium mobilisation—being necessary to cause uterine contractions—by using test compounds of formula (1).
Preparing the plates: FLIPR-plates were pre-coated with PLL (Poly-L-Lysine) 10 μg/ml+0.1% gelatine to attach the CHO cells (expessing hV1a) for 30 min up to 2 days at 37° C. The cells were plated out into 96-well plates (60000 cells/well).
as §2, with “μg” for “kg”, “DMEM-F12” for “DNEM-F12”, “1-1.5” for “1.5-2”, “(CHO-cells).” for “(HEK-cells).”
as §3, §4
AVP is added at a concentration of 40 nM.
as §5
as §6, with “AVP-induced” for “oxytocin-induced”, “VIa-receptor.” for “oxytocin receptor.”

hV1a [2] = biological target: T3, hV1a; assay: In vitro competition binding assay on hV1a receptor with scintillating proximity assay; design: expressed in transfected cells; host or cells: CHO cells (membranes); settings: membranes from CHO cells expressing hV1a receptor; radiolabel [125I]-LVA; SPA; read-out: Binding Affinity Human V1a Ki
Experimental: b) In Vitro Competition Binding Assay on hV1a Receptor with Scintillating Proximity Assay
This assays allows to determine the affinity of the test compounds for the V1a receptor. Membranes from CHO cells expressing the hV1a receptor were resuspended in buffer containing 50 mM Tris-HCl, pH 7.4, 5 mM MgCl2 and 0.1% BSA (w/v). The membranes (5-10 μg) were mixed with 0.2 mg wheat-germ aglutinin (WGA) SPA bead (type A) and 0.03 nM of the radiolabel [^125I]-LVA (LVA being Linear Vasopressin Antagonist and is an analogue of AVP for competition binding experiments). Non-specific binding was determined in the presence of 1 μM AVP. The total assay volume was 100 μl. The plates (Corning 0 NBS plate) were incubated at room temperature for 2 hours and counted on a Mibrobeta plate counter. The tests compounds were used in concentrations of 30 μM, 10 μM, 1 μM, 300 nM, 100 nM, 10 nM, 1 nM, 100 pM, 10 pM. The competition binding data were analysed using the iterative, nonlinear, curve-fitting program, Graph pad “Prism”.
The binding affinities to the Via receptor of the sulfanilide derivatives claimed in the formula I were assessed using the above described in vitro biological assay. The values refer to the binding affinity (IC50; HM) of the example compounds according to formula I to the V1a receptor. From the values shown in Table 1 it can be derived that said test compounds according to formula I do show a significant binding to the Via receptor.

| IC50 (ratOT-R) | IC50 (hV1a [1]) | Compound | further results |
| --- | --- | --- | --- |
| 110 nM |  | Cc1c(Cl)cccc1NC(=O)CN(c1ccc(Br)cc1)S(=O)(=O)c1ccccc1 [2-[Benzenesulfonyl-(4-bromo-phenyl)-amino]-N-(3-chloro-2-methyl-phenyl)-acetamide] | IC50 (hOT-R): 353 nM |
|  | 90 nM | COc1ccc(N(CC(=O)Nc2ccc(Cl)cc2C)S(=O)(=O)c2ccccc2)cc1 [2-[Benzenesulfonyl-(4-methoxy-phenyl)-amino]-N-(4-chloro-2-methyl-phenyl)-acetamide] |  |
|  |  | COc1ccc(S(=O)(=O)N(CC(=O)N/N=C/c2ccccc2O)c2ccc(Cl)cc2)cc1OC [Example 37, N-(4-chlorophenyl)-N-{2-[(2E)-2-(2-hydroxybenzylidene)hydrazino]-2-oxoethyl}-3,4-dimethoxybenzenesulfonamide] | Ki (hV1a [2]): 550 nM; melting point: 188 to 189 °C |
|  | 440 nM | COc1ccc(/C=N/NC(=O)CN(c2cccc(Br)c2)S(=O)(=O)c2ccccc2)cc1OC [N-(3-Bromo-phenyl)-N-(3,4-dimethoxy-benzylidene-hydrazinocarbonylmethyl)-benzenesulfonamide] |  |
|  | 550 nM | COc1ccc(/C=N/NC(=O)CN(c2cccc(Cl)c2)S(=O)(=O)c2ccccc2)cc1OC [N-(3-Chloro-phenyl)-N-(3,4-dimethoxy-benzylidene-hydrazinocarbonylmethyl)-benzenesulfonamide] |  |
|  | 370 nM | C/C(=N/NC(=O)CN(c1cccc(Cl)c1)S(=O)(=O)c1ccccc1)c1ccccc1O [N-(3-Chloro-phenyl)-N-[1-(2-hydroxy-phenyl)-ethylidene-hydrazinocarbonylmethyl]-benzenesulfonamide] |  |
| 300 nM |  | O=C(CN(c1ccccc1)S(=O)(=O)c1ccccc1)N/N=C1\C(=O)Nc2ccccc21 [N-{2-oxo-2-[2-(2-oxo-1,2-dihydro-3H-indol-3-ylidene)hydrazino]ethyl}-N-phenylbenzenesulfonamide] |  |
| 48 nM |  | C/C(=N\NC(=O)CN(c1ccc(Br)cc1)S(=O)(=O)c1ccccc1)c1ccccc1O [drawing 168, N-(4-bromophenyl)-N-(2-{2-[1-(2-hydroxyphenyl)ethylidene]hydrazino}-2-oxoethyl)benzenesulfonamide] |  |

| Compound | IC50 (ratOT-R) | IC50 (hV1a [1]) | further results |
| --- | --- | --- | --- |
| Cc1c(Cl)cccc1NC(=O)CN(c1ccc(Cl)cc1)S(=O)(=O)c1ccccc1 [2-[Benzenesulfonyl-(4-chloro-phenyl)-amino]-N-(3-chloro-2-methyl-phenyl)-acetamide] | 320 nM |  | IC50 (hOT-R): 443 nM |
